Assay [1] concerns Corn Earworm (CEW) (Helicoverpa zea). Nature of the assay: Bioassays on Corn Earworm (CEW), 128-well diet tray assay. Type of assay: in vivo. Particulars: 168 h, 50 μg/cm^2 test compound on artificial diet, second instar larvae, 25° C., five to seven days, average of eight wells, read-out: CEW Rating (% mortality). The method in brief:
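Second-instar larvae (one to five per well) placed on artificial diet treated with 50 μg/cm^2 compound in 90:10 acetone-water, dried; eight wells per compound. Held at 25° C, 14:10 light-dark, five to seven days; percent mortality averaged over wells.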

For assay [2], the system named is Beet Armyworm (BAW) (Spodoptera exigua). Nature of the assay: Bioassays on Beet Armyworm (BAW), 128-well diet tray assay. It counts as in vivo. Particulars: 168 h, 50 μg/cm^2 test compound on artificial diet, second instar larvae, 25° C., five to seven days, average of eight wells, read-out: BAW Rating (% mortality). The essentials: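 Second-instar larvae (1–5 per well) on artificial diet surface-treated with 50 μg/cm^2 compound applied in 90:10 acetone-water and dried; eight wells per compound. Held 5–7 days at 25° C., 14:10 light-dark. Percent mortality scored per well and averaged over eight wells.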

Consider 41 molecules from patent US9615576B2, “Pesticidal compositions and processes related thereto” (Dow AgroSciences LLC, priority 2011, dated 2017).

As for `O=C(CC(F)(F)F)NC1CCc2cc(/C=C/C(c3cc(Cl)c(F)c(Cl)c3)C(F)(F)F)ccc21` (stereo not shown) [BC8], the mortality at 50 µg/cm2 in assay [1] and in assay [2] was 50 to 100% throughout.
Consider `O=C(Cc1ccc(Cl)nc1)NC1CCc2cc(/C=C/C(c3cc(Cl)c(F)c(Cl)c3)C(F)(F)F)ccc21` (stereo not shown) [BC9], for which the mortality at 50 µg/cm2 in assay [1] and in assay [2] was 50 to 100% in each case.
Regarding `Fc1c(Cl)cc(C(/C=C/c2ccc3c(c2)CCC3NCCC(F)(F)F)C(F)(F)F)cc1Cl` (stereo not shown) [BC10, (E)-5-(3-(3,5-dichloro-4-fluorophenyl)-4,4,4-trifluorobut-1-en-1-yl)-N-(3,3,3-trifluoropropyl)-2,3-dihydro-1H-inden-1-amine], the mortality at 50 µg/cm2 in assay [1] and in assay [2] was 50 to 100% throughout.
As to `O=C(CC(F)(F)F)NCC(=O)n1ccc2cc(/C=C/C(c3cc(Cl)c(F)c(Cl)c3)C(F)(F)F)ccc21` (stereo not shown) [BC13, (E)-N-(2-(5-(3-(3,5-dichloro-4-fluorophenyl)-4,4,4-trifluorobut-1-en-1-yl)-1H-indol-1-yl)-2-oxoethyl)-3,3,3-trifluoropropanamide], the mortality at 50 µg/cm2 in assay [1] and in assay [2] was 50 to 100% throughout.
As for `O=C(Cn1ncc2cc(/C=C/C(c3cc(Cl)c(F)c(Cl)c3)C(F)(F)F)ccc2c1=O)NCC(F)(F)F` (stereo not shown) [BC14, (E)-2-(6-(3-(3,5-dichloro-4-fluorophenyl)-4,4,4-trifluorobut-1-en-1-yl)-1-oxophthalazin-2(1H)-yl)-N-(2,2,2-trifluoroethyl)acetamide], the results for the mortality at 50 µg/cm2 in assay [1] and in assay [2] were 0% and 50 to 100%, respectively.
Taken in the same sequence, the figures for `CC(=O)NCc1ccc(/C=C/C(c2cc(Cl)cc(Cl)c2)C(F)(F)F)cc1` (stereo not shown) [CC1, (E)-N-(4-(3-(3,5-dichlorophenyl)-4,4,4-trifluorobut-1-enyl)benzyl)acetamide] were 0% and 0%.
The corresponding values for `O=C(NCc1ccc(/C=C/C(c2cc(Cl)cc(Cl)c2)C(F)(F)F)cc1)C1CC1` (stereo not shown) [CC2] are 50 to 100% and 50 to 100%.
`O=C(CC(F)(F)F)NCc1ccc(/C=C/C(c2cc(Cl)cc(Cl)c2)C(F)(F)F)cc1` (stereo not shown) [CC3]: the mortality at 50 µg/cm2 in assay [1] and in assay [2] was 50 to 100% in each case.
As for `CCC(=O)NCc1ccc(/C=C/C(c2cc(Cl)cc(Cl)c2)C(F)(F)F)cc1` (stereo not shown) [CC4], the mortality at 50 µg/cm2 lay in the range of 0 to 50% in assay [1] and 50 to 100% in assay [2].
Taken in the same sequence, the figures for `O=C(NCc1ccc(/C=C/C(c2cc(Cl)c(Cl)c(Cl)c2)C(F)(F)F)cc1)C1CC1` (stereo not shown) [CC5] were 50 to 100% and 50 to 100%.
Turning to `O=C(CC(F)(F)F)NCc1ccc(/C=C/C(c2cc(Cl)c(Cl)c(Cl)c2)C(F)(F)F)cc1` (stereo not shown) [CC6], the mortality at 50 µg/cm2 in assay [1] and in assay [2] was 50 to 100% each time.
For the molecule `CC(=O)NCc1ccc(/C=C/C(c2cc(Cl)cc(Cl)c2)C(F)(F)F)cc1Cl` (stereo not shown) [CC7, (E)-N-(2-chloro-4-(3-(3,5-dichlorophenyl)-4,4,4-trifluorobut-1-en-1-yl)benzyl)acetamide], the mortality at 50 µg/cm2 in assay [1] and in assay [2] was 50 to 100% in each case.
`O=C(NCc1ccc(/C=C/C(c2cc(Cl)cc(Cl)c2)C(F)(F)F)cc1Cl)C1CC1` (stereo not shown) [CC8]: the mortality at 50 µg/cm2 in assay [1] and in assay [2] was 50 to 100% throughout.
Consider `O=C(CC(F)(F)F)NCc1ccc(/C=C/C(c2cc(Cl)cc(Cl)c2)C(F)(F)F)cc1Cl` (stereo not shown) [CC9], for which the mortality at 50 µg/cm2 in assay [1] and in assay [2] was 50 to 100% throughout.
Take `O=C(CC(F)(F)F)NCc1ccc(/C=C/C(c2cc(Cl)c(Cl)c(Cl)c2)C(F)(F)F)cc1Cl` (stereo not shown) [CC10]: the mortality at 50 µg/cm2 in assay [1] and in assay [2] was 50 to 100% in each case.
As for `O=C(NCc1ccc(/C=C/C(c2cc(Cl)c(Cl)c(Cl)c2)C(F)(F)F)cc1Cl)C1CC1` (stereo not shown) [CC11], the mortality at 50 µg/cm2 in assay [1] and in assay [2] was 50 to 100% each time.
As for `CC(C)(C)C(=O)NCc1ccc(/C=C/C(c2cc(Cl)c(Cl)c(Cl)c2)C(F)(F)F)cc1Cl` (stereo not shown) [CC12], the mortality at 50 µg/cm2 in assay [1] and in assay [2] was 0% in each case.
For the molecule `O=C(NCc1ccc(/C=C/C(c2cc(Cl)c(Cl)c(Cl)c2)C(F)(F)F)cc1)c1ccnc(Cl)c1` (stereo not shown) [CC13], the mortality at 50 µg/cm2 in assay [1] and in assay [2] was 50 to 100% throughout.
As for `O=C(Cc1ccc(Cl)nc1)NCc1ccc(/C=C/C(c2cc(Cl)c(Cl)c(Cl)c2)C(F)(F)F)cc1Cl` (stereo not shown) [CC14], the values for the mortality at 50 µg/cm2 in assay [1] and in assay [2] were 0% and 50 to 100%, respectively.
Taken in the same sequence, the figures for `O=C(NCc1ccc(/C=C/C(c2cc(Cl)c(F)c(Cl)c2)C(F)(F)F)cc1Cl)C1CC1` (stereo not shown) [CC15] were 50 to 100% and 50 to 100%.
The corresponding values for `O=C(CC(F)(F)F)NCc1ccc(/C=C/C(c2cc(Cl)c(F)c(Cl)c2)C(F)(F)F)cc1` (stereo not shown) [CC16] are 50 to 100% and 50 to 100%.
Taken in the same sequence, the figures for `O=C(NCc1ccc(/C=C/C(c2ccc(Cl)c(Cl)c2)C(F)(F)F)cc1Cl)C1CC1` (stereo not shown) [CC17] were 50 to 100% and 50 to 100%.
Regarding `O=C(CC(F)(F)F)NCc1ccc(/C=C/C(c2ccc(Cl)c(Cl)c2)C(F)(F)F)cc1Cl` (stereo not shown) [CC18], the mortality at 50 µg/cm2 in assay [1] and in assay [2] was 50 to 100% each time.
In the case of `CSCCC(=O)NCc1ccc(/C=C/C(c2cc(Cl)c(Cl)c(Cl)c2)C(F)(F)F)cc1Cl` (stereo not shown) [CC19], the mortality at 50 µg/cm2 in assay [1] and in assay [2] was 50 to 100% each time.
Turning to `FC(F)(F)C(/C=C/c1ccc(CNC(=S)C2CC2)c(Cl)c1)c1cc(Cl)c(Cl)c(Cl)c1` (stereo not shown) [CC20], the mortality at 50 µg/cm2 in assay [1] and in assay [2] was 50 to 100% in each case.
`O=C(NCc1ccc(/C=C/C(c2cc(Cl)cc(Cl)c2)C(F)(F)F)cc1C(F)(F)F)C1CC1` (stereo not shown) [CC21]: the mortality at 50 µg/cm2 in assay [1] and in assay [2] was 50 to 100% throughout.
As for `O=C(NCc1ccc(/C=C/C(c2cc(Cl)c(Cl)c(Cl)c2)C(F)(F)F)cc1C(F)(F)F)C1CC1` (stereo not shown) [CC22], the mortality at 50 µg/cm2 in assay [1] and in assay [2] was 50 to 100% each time.
As to `O=C(NCc1ccc(/C=C/C(c2cc(Cl)c(Cl)c(Cl)c2)C(F)(F)F)cc1C(F)(F)F)c1cccnc1` (stereo not shown) [CC23], the mortality at 50 µg/cm2 in assay [1] and in assay [2] was 50 to 100% in each case.
Take `O=C(CC(F)(F)F)NCc1ccc(/C=C/C(c2cc(Cl)c(Cl)c(Cl)c2)C(F)(F)F)cc1C(F)(F)F` (stereo not shown) [CC24]: the mortality at 50 µg/cm2 in assay [1] and in assay [2] was 50 to 100% throughout.
Regarding `O=C(CC(F)(F)F)NCc1ccc(/C=C/C(c2cc(Cl)c(Cl)c(Cl)c2)C(F)(F)F)cc1Br` (stereo not shown) [CC25], the mortality at 50 µg/cm2 in assay [1] and in assay [2] was 50 to 100% in each case.
Regarding `O=C(NCc1ccc(/C=C/C(c2cc(Cl)c(Cl)c(Cl)c2)C(F)(F)F)cc1Br)C1CC1` (stereo not shown) [CC26], the mortality at 50 µg/cm2 in assay [1] is 0%; in assay [2] it was 50 to 100%.
On to `O=C(CC(F)(F)F)NCc1ccc(/C=C/C(c2cc(Cl)c(Cl)c(Cl)c2)C(F)(F)F)cc1F` (stereo not shown) [CC27], for which the mortality at 50 µg/cm2 in assay [1] and in assay [2] was 50 to 100% each time.
For the molecule `O=C(NCc1ccc(/C=C/C(c2cc(Cl)c(Cl)c(Cl)c2)C(F)(F)F)cc1F)C1CC1` (stereo not shown) [CC28], the mortality at 50 µg/cm2 in assay [1] and in assay [2] was 50 to 100% in each case.
With `O=C(C1CC1)N(Cc1ccccn1)Cc1ccc(/C=C/C(c2cc(Cl)c(Cl)c(Cl)c2)C(F)(F)F)cc1C(F)(F)F` (stereo not shown) [CC29, (E)-N-(pyridin-2-ylmethyl)-N-(4-(4,4,4-trifluoro-3-(3,4,5-trichlorophenyl)but-1-enyl)-2-(trifluoromethyl)benzyl)cyclopropanecarboxamide], the mortality at 50 µg/cm2 in assay [1] and in assay [2] was 50 to 100% each time.
For the molecule `CS(=O)(=O)CCC(=O)NCc1ccc(/C=C/C(c2cc(Cl)c(Cl)c(Cl)c2)C(F)(F)F)cc1Cl` (stereo not shown) [CC30, (E)-N-(2-chloro-4-(4,4,4-trifluoro-3-(3,4,5-trichlorophenyl)but-1-en-1-yl)benzyl)-3-(methylsulfonyl)propanamide], the mortality at 50 µg/cm2 in assay [1] and in assay [2] was 50 to 100% each time.
On to `CCNC(=O)NCc1ccc(/C=C/C(c2cc(Cl)cc(Cl)c2)C(F)(F)F)cc1Cl` (stereo not shown) [CC31, (E)-1-(2-chloro-4-(3-(3,5-dichlorophenyl)-4,4,4-trifluorobut-1-en-1-yl)benzyl)-3-ethylurea], for which the mortality at 50 µg/cm2 in assay [1] was 0%; in assay [2], 0 to 50%.
In the case of `CCNC(=O)NCc1ccc(/C=C/C(c2cc(Cl)c(Cl)c(Cl)c2)C(F)(F)F)cc1C(F)(F)F` (stereo not shown) [CC32], the mortality at 50 µg/cm2 in assay [1] and in assay [2] was 50 to 100% in each case.
In the case of `CCNC(=O)NCc1ccc(/C=C/C(c2cc(Cl)c(Cl)c(Cl)c2)C(F)(F)F)cc1Br` (stereo not shown) [CC33], the mortality at 50 µg/cm2 in assay [1] and in assay [2] was 50 to 100% in each case.
Regarding `O=C(NCc1ccc(/C=C/C(c2cc(Cl)c(Cl)c(Cl)c2)C(F)(F)F)cc1Cl)N1CCOCC1` (stereo not shown) [CC34], the mortality at 50 µg/cm2 in assay [1] and in assay [2] was 50 to 100% in each case.
Take `O=C(NCc1ccc(/C=C/C(c2cc(Cl)c(Cl)c(Cl)c2)C(F)(F)F)cc1Cl)Nc1ccccn1` (stereo not shown) [CC35]: the mortality at 50 µg/cm2 in assay [1] and in assay [2] was 0% each time.
For `CN(C)C(=O)NCc1ccc(/C=C/C(c2cc(Cl)c(Cl)c(Cl)c2)C(F)(F)F)cc1Cl` (stereo not shown) [CC36, (E)-3-(2-chloro-4-(4,4,4-trifluoro-3-(3,4,5-trichlorophenyl)but-1-en-1-yl)benzyl)-1,1-dimethylurea], the mortality at 50 µg/cm2 in assay [1] and in assay [2] was 50 to 100% each time.

For orientation: mortality means the percentage killed.
